Test results as given in BigSolDB 2.1.

Compound: OC[C@@H](O)C(O)[C@@H](O)CO (some centres not stated)
- solubility (mole fraction) (in DMF, 293.21 K): 0.0411
- solubility (mole fraction) (in DMF, 298.29 K): 0.0504
- solubility (mole fraction) (in DMF, 303.26 K): 0.0609
- solubility (mole fraction) (in DMF, 308.24 K): 0.0736
- solubility (mole fraction) (in DMF, 313.22 K): 0.0895
- solubility (mole fraction) (in DMF, 318.32 K): 0.11
- solubility (mole fraction) (in DMF, 323.2 K): 0.134
- solubility (mole fraction) (in DMF, 328.24 K): 0.166
- solubility (mole fraction) (in DMF, 333.27 K): 0.204
- solubility (mole fraction) (in acetone, 293.29 K): 0.000203
- solubility (mole fraction) (in acetone, 298.18 K): 0.00024
- solubility (mole fraction) (in acetone, 303.26 K): 0.000304
- solubility (mole fraction) (in acetone, 308.22 K): 0.000401
- solubility (mole fraction) (in acetone, 313.2 K): 0.000543
- solubility (mole fraction) (in acetone, 318.23 K): 0.000743
- solubility (mole fraction) (in acetone, 323.2 K): 0.00101
- solubility (mole fraction) (in ethanol, 293.23 K): 0.00173
- solubility (mole fraction) (in ethanol, 298.28 K): 0.00242
- solubility (mole fraction) (in ethanol, 303.17 K): 0.00309
- solubility (mole fraction) (in ethanol, 308.21 K): 0.00397
- solubility (mole fraction) (in ethanol, 313.19 K): 0.00522
- solubility (mole fraction) (in ethanol, 318.29 K): 0.00709
- solubility (mole fraction) (in ethanol, 323.24 K): 0.00966
- solubility (mole fraction) (in ethanol, 328.19 K): 0.0132
- solubility (mole fraction) (in ethanol, 333.22 K): 0.0179
- solubility (mole fraction) (in isopropanol, 293.28 K): 0.00113
- solubility (mole fraction) (in isopropanol, 298.2 K): 0.00154
- solubility (mole fraction) (in isopropanol, 303.23 K): 0.00212
- solubility (mole fraction) (in isopropanol, 308.19 K): 0.00268
- solubility (mole fraction) (in isopropanol, 313.32 K): 0.00342
- solubility (mole fraction) (in isopropanol, 318.21 K): 0.00443
- solubility (mole fraction) (in isopropanol, 323.16 K): 0.00588
- solubility (mole fraction) (in isopropanol, 328.21 K): 0.00798
- solubility (mole fraction) (in isopropanol, 333.27 K): 0.0109
- solubility (mole fraction) (in isopropanol, 338.19 K): 0.0146
- solubility (mole fraction) (in isopropanol, 343.23 K): 0.0194
- solubility (mole fraction) (in n-butanol, 293.16 K): 0.00113
- solubility (mole fraction) (in n-butanol, 298.21 K): 0.00154
- solubility (mole fraction) (in n-butanol, 303.26 K): 0.00212
- solubility (mole fraction) (in n-butanol, 308.27 K): 0.00268
- solubility (mole fraction) (in n-butanol, 313.22 K): 0.00342
- solubility (mole fraction) (in n-butanol, 318.16 K): 0.00443
- solubility (mole fraction) (in n-butanol, 323.23 K): 0.00588
- solubility (mole fraction) (in n-butanol, 328.32 K): 0.00798
- solubility (mole fraction) (in n-butanol, 333.24 K): 0.0109
- solubility (mole fraction) (in n-butanol, 338.22 K): 0.0146
- solubility (mole fraction) (in n-butanol, 343.76 K): 0.0194
- solubility (mole fraction) (in n-pentanol, 293.2 K): 0.000298
- solubility (mole fraction) (in n-pentanol, 298.18 K): 0.000483
- solubility (mole fraction) (in n-pentanol, 303.26 K): 0.000734
- solubility (mole fraction) (in n-pentanol, 308.29 K): 0.00101
- solubility (mole fraction) (in n-pentanol, 313.19 K): 0.00136
- solubility (mole fraction) (in n-pentanol, 318.24 K): 0.00188
- solubility (mole fraction) (in n-pentanol, 323.29 K): 0.00263
- solubility (mole fraction) (in n-pentanol, 328.23 K): 0.00364
- solubility (mole fraction) (in n-pentanol, 333.22 K): 0.005
- solubility (mole fraction) (in n-pentanol, 338.33 K): 0.00682
- solubility (mole fraction) (in n-pentanol, 343.24 K): 0.00903
- solubility (mole fraction) (in toluene, 293.26 K): 3.99e-05
- solubility (mole fraction) (in toluene, 298.28 K): 4.18e-05
- solubility (mole fraction) (in toluene, 303.19 K): 4.52e-05
- solubility (mole fraction) (in toluene, 308.17 K): 5e-05
- solubility (mole fraction) (in toluene, 313.23 K): 5.63e-05
- solubility (mole fraction) (in toluene, 318.33 K): 6.42e-05
- solubility (mole fraction) (in toluene, 323.21 K): 7.31e-05
- solubility (mole fraction) (in toluene, 328.22 K): 8.37e-05
- solubility (mole fraction) (in toluene, 333.3 K): 9.6e-05
- solubility (mole fraction) (in toluene, 338.16 K): 0.000109
- solubility (mole fraction) (in toluene, 343.19 K): 0.000124
- solubility (mole fraction) (in water, 293.28 K): 0.162
- solubility (mole fraction) (in water, 298.3 K): 0.18
- solubility (mole fraction) (in water, 303.17 K): 0.203
- solubility (mole fraction) (in water, 308.21 K): 0.232
- solubility (mole fraction) (in water, 313.29 K): 0.266
- solubility (mole fraction) (in water, 318.26 K): 0.302
- solubility (mole fraction) (in water, 323.25 K): 0.339
- solubility (mole fraction) (in water, 328.21 K): 0.377
